PubChem BioAssay (NCI)
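Test compounds were applied to cells in 96-well plates for 48 hours at 5 doses. TGI: concentration producing complete growth inhibition.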

What was measured:
Assay in all cases: NCI anticancer screen, dose series, 48 h
[1] = tested on: UACC-62 melanoma
[2] = tested on: OVCAR-3 ovarian
[3] = tested on: SW-620 colon
[4] = tested on: U251 CNS
[5] = tested on: CAKI-1 renal
[6] = tested on: SR leukemia
[7] = tested on: UO-31 renal
[8] = tested on: TK-10 renal
[9] = tested on: HOP-92 NSCLC
[10] = tested on: MDA-MB-231 breast
[11] = tested on: NCI/ADR-RES ovarian
[12] = tested on: ACHN renal
[13] = tested on: MALME-3M melanoma
[14] = tested on: DU-145 prostate
[15] = tested on: MCF7 breast
[16] = tested on: HCT-15 colon
[17] = tested on: SK-MEL-5 melanoma
[18] = tested on: SNB-19 CNS
[19] = tested on: M14 melanoma
[20] = tested on: OVCAR-4 ovarian

Compound	TGI [1] [µM]	TGI [2] [µM]	TGI [3] [µM]	TGI [4] [µM]	TGI [5] [µM]	TGI [6] [µM]	TGI [7] [µM]	TGI [8] [µM]	TGI [9] [µM]	TGI [10] [µM]	TGI [11] [µM]	TGI [12] [µM]	TGI [13] [µM]	TGI [14] [µM]	TGI [15] [µM]	TGI [16] [µM]	TGI [17] [µM]	TGI [18] [µM]	TGI [19] [µM]	TGI [20] [µM]
O=[N+]([O-])c1ccc2sc(/C=N/c3ccccn3)cc2c1	> 100	> 100	> 100	> 100	> 100	89.4	> 100	> 100	> 100	> 100	> 100	> 100	> 100	> 100	> 100	> 100	> 100	> 100	> 100	–
O=c1[nH][nH]c(=O)n1/N=C/c1ccccc1	> 100	> 100	> 100	> 100	> 100	> 100	> 100	> 100	> 100	> 100	> 100	> 100	–	> 100	> 100	> 100	> 100	> 100	> 100	–
CC(C)OC(=O)[C@H]1ON2O[C@H](O[C@@H]3CCCC[C@H]3c3ccccc3)C([Si](C)(C)c3ccccc3)[C@H]3OC(=O)[C@@H]1C32 (stereo not given in full)	> 100	> 100	> 100	> 100	> 100	54.2	> 100	> 100	> 100	> 100	> 100	> 100	–	> 100	> 100	> 100	> 100	> 100	> 100	–
CCNC1=C(NC(=O)c2ccccc2)C(=O)c2ccccc2C1=O	> 100	85.3	> 100	> 100	–	> 100	–	> 100	> 100	> 100	39.7	–	43	> 100	> 100	> 100	–	> 100	> 100	> 100
Cc1cc(S(=O)(=O)Nc2nnc3ccccn23)c(S)cc1Cl	> 100	> 100	> 100	> 100	–	> 100	> 100	> 100	–	> 100	> 100	> 100	> 100	> 100	> 100	> 100	> 100	> 100	> 100	> 100
CO[C@@]12C[C@@H](C)[C@]34O[C@H]3C[C@]3(C)O[C@]43CC1=C(C)C(=O)O2	> 100	> 100	> 100	> 100	> 100	–	> 100	> 100	> 100	> 100	> 100	> 100	> 100	> 100	> 100	> 100	> 100	> 100	> 100	> 100
COC(=O)c1c(C)c2c(c(C)c1C(=O)OC)-c1c(C)ccc3ccc(C)c-2c13	> 100	> 100	> 94.5	> 100	> 100	46.9	> 100	> 100	–	> 60.6	> 100	> 100	> 100	> 100	> 100	> 55.6	95.8	> 100	> 100	> 100
O=C1CCC2c3ccccc3NCN12 (stereo not given)	> 100	> 100	> 100	> 100	> 100	–	> 100	> 100	> 100	> 100	> 100	> 100	> 100	> 100	> 100	> 100	> 100	> 100	> 100	> 100
CC(=O)C1C(=O)C(=O)N(c2ccc([N+](=O)[O-])cc2)C1=O (stereo not given)	> 100	> 100	> 100	> 100	> 100	–	> 100	> 100	> 100	> 100	> 100	> 100	–	> 100	> 100	> 100	> 100	> 100	> 100	> 100
COc1ccc(N=Nc2ccc3oc(=O)c(C(=O)Nc4ccccc4C)cc3c2)cc1	–	> 10	> 10	> 10	> 10	> 10	> 10	> 10	> 10	> 10	> 10	> 10	> 10	> 10	> 10	> 10	> 10	–	> 10	> 10
CS(=O)(=O)OCCCSCCSCCCOS(C)(=O)=O	> 100	> 100	> 100	> 100	–	> 100	> 100	> 100	> 100	> 100	> 100	–	–	> 100	> 100	> 100	> 100	> 100	> 100	> 100
CC(=O)Oc1c2ccsc2c(OC(C)=O)c2ccsc12	3.3	6.54	–	2.45	3.66	0.88	2.57	4.2	2.75	6.17	1.23	2.28	0.889	0.833	2.31	1.74	0.31	3.17	0.94	1.73
Nc1ncc(C=O)c(NCC2(CO)CCC2)n1	81.2	> 100	> 100	> 100	44.3	> 100	> 100	73.8	87.8	> 100	> 100	–	> 100	> 100	> 100	> 100	86.9	–	–	> 100
